# Experimental data: the supplement of paper PMC11061612
# How the values were obtained:
# Assay in all cases: Bliss excess, mean over the matrix (fraction); higher = more synergy
# [1] = system: NCI-H69 (Small Cell Lung Carcinoma)
# How it was run: (§1)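 Bliss excess equals the observed combination effect minus the expected value EA + EB − EA·EB, where EA and EB are the effects of each agent alone. Combination Emax is the second-highest inhibition within the matrix. Inhibition was scaled from CellTiter-Glo 2.0 luminescence, with 0 set by vehicle wells and 1 by blank wells, after 72 hours of two-drug dosing of cells plated in 1536-well plates.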
# [2] = system: SW1271 (Small Cell Lung Carcinoma)
# How it was run: as §1
# [3] = system: RPMI-6666 (Non-Cancerous)
# How it was run: as §1
# [4] = system: PCI-30 (Head and Neck Carcinoma)
# How it was run: as §1
# NCI-H2461 (Mesothelioma) = system: NCI-H2461 (Mesothelioma)
# How it was run: as §1
# SH-4 (Melanoma) = system: SH-4 (Melanoma)
# How it was run: as §1
# [5] = system: HARA (Squamous Cell Lung Carcinoma)
# How it was run: as §1
# HMV-II (Melanoma) = system: HMV-II (Melanoma)
# How it was run: as §1
# [6] = system: HO-1-u-1 (Oral Cavity Carcinoma)
# How it was run: as §1
# [7] = system: 639-V (Bladder Carcinoma)
# How it was run: as §1
# [8] = system: OVCAR-8 (Ovarian Carcinoma)
# How it was run: as §1
# NCI-H2795 (Mesothelioma) = system: NCI-H2795 (Mesothelioma)
# How it was run: as §1
# [9] = system: K5 (Thyroid Gland Carcinoma)
# How it was run: as §1
# Mewo (Melanoma) = system: Mewo (Melanoma)
# How it was run: as §1
# NB14 (Neuroblastoma) = system: NB14 (Neuroblastoma)
# How it was run: as §1
# [10] = system: SK-OV-3 (Ovarian Carcinoma)
# How it was run: as §1
# [11] = system: EN (Endometrial Carcinoma)
# How it was run: as §1
# [12] = system: CTB-1 (B-Cell Non-Hodgkin's Lymphoma)
# How it was run: as §1
# [13] = system: LoVo (Colorectal Carcinoma)
# How it was run: as §1
# NCI-H28 (Mesothelioma) = system: NCI-H28 (Mesothelioma)
# How it was run: as §1
Compound,Bliss excess [1],Bliss excess [2],Bliss excess [3],Bliss excess [4],Bliss excess (NCI-H2461 (Mesothelioma)),Bliss excess (SH-4 (Melanoma)),Bliss excess [5],Bliss excess (HMV-II (Melanoma)),Bliss excess [6],Bliss excess [7],Bliss excess [8],Bliss excess (NCI-H2795 (Mesothelioma)),Bliss excess [9],Bliss excess (Mewo (Melanoma)),Bliss excess (NB14 (Neuroblastoma)),Bliss excess [10],Bliss excess [11],Bliss excess [12],Bliss excess [13],Bliss excess (NCI-H28 (Mesothelioma))
"COc1cccc(OCCCN)c1-c1cc(Nc2cnc(C#N)cn2)n[nH]1 [Prexasertib] + O=C(c1cc(Cc2n[nH]c(=O)c3ccccc23)ccc1F)N1CCN(C(=O)C2CC2)CC1 [Olaparib] (first compound max 1 µM, 7x7, partner max 10 µM)",0.0332,-0.0602,-0.0352,-0.166,-0.0891,-0.099,-0.0682,-0.0242,-0.109,0.101,-0.0475,-0.024,-0.051,-0.0708,-0.0553,-0.12,-0.0336,-0.0667,-0.129,-0.0613
"CCN(CCO)CCCOc1ccc2c(Nc3cc(CC(=O)Nc4cccc(F)c4)[nH]n3)ncnc2c1 [AZD2811] + O=C(c1cc(Cc2n[nH]c(=O)c3ccccc23)ccc1F)N1CCN(C(=O)C2CC2)CC1 [Olaparib] (first compound max 1 µM, 7x7, partner max 10 µM)",-0.0259,-0.0312,-0.0615,-0.031,-0.0638,-0.0234,-0.0071,-0.0302,0.0288,0.0445,0.0244,0.052,0.0162,-0.0112,-0.0384,-0.041,-0.0657,-0.0508,-0.0452,-0.0383
"CC(=O)Nc1cccc(-n2c(=O)n(C3CC3)c(=O)c3c(Nc4ccc(I)cc4F)n(C)c(=O)c(C)c32)c1 [Trametinib] + Cc1nc(-c2cn3c(n2)-c2ccc(-c4cnn(C(C)(C)C(N)=O)c4)cc2OCC3)n(C(C)C)n1 [Taselisib] (first compound max 1 µM, 7x7, partner max 10 µM)",-0.0257,0.0896,0.0351,0.0485,0.0312,0.0172,0.162,0.0405,0.0754,0.068,0.121,0.0749,0.0183,0.0975,0.0702,0.0582,0.0161,0.0136,-0.0092,0.0616
"Cc1cc2ncnn2cc1Nc1ncc2c(n1)n(C1CCOCC1)c(=O)n2C [AZD7648] + O=C(c1cc(Cc2n[nH]c(=O)c3ccccc23)ccc1F)N1CCN(C(=O)C2CC2)CC1 [Olaparib] (first compound max 10 µM, 7x7, partner max 10 µM)",-0.0151,-0.0461,-0.0545,-0.0695,-0.0601,-0.0401,-0.0114,-0.0181,-0.0481,-0.0184,-0.0103,-0.0183,-0.0159,-0.0885,-0.0534,-0.0478,-0.0423,-0.0489,-0.0382,-0.0378
"CN(CCO)CC[C@H](CSc1ccccc1)Nc1ccc(S(=O)(=O)NC(=O)c2ccc(N3CCC([C@@H](O)c4ccccc4-c4ccc(Cl)cc4)CC3)cc2)cc1S(=O)(=O)C(F)(F)F [AZD4320] + C=CCn1c(=O)c2cnc(Nc3ccc(N4CCN(C)CC4)cc3)nc2n1-c1cccc(C(C)(C)O)n1 [AZD1775] (first compound max 1 µM, partner max 1 µM)",-0.0213,0.0152,0.0219,0.0013,0.016,0.0103,-0.0129,0.0496,0.0066,-0.0437,-0.012,-0.0225,0.0069,0.0306,0.0415,0.0069,-0.0337,-0.0309,0.0093,0.0115
"Cc1c2c(nn1C)CSCc1cc(n(C)n1)CSc1cc(c3ccccc3c1)OCCCc1c(C(=O)O)n(C)c3c-2c(Cl)ccc13 [AZD5991] + C[C@@H](Nc1cc(F)cc(F)c1)c1cc(C(=O)N(C)C)cc2c(=O)cc(N3CCOCC3)oc12 [AZD8186] (first compound max 1 µM, 7x7, partner max 3 µM)",-0.0601,-0.0576,-0.0005,-0.0209,-0.0062,0.0203,-0.0036,-0.0401,-0.014,0.0519,0.0164,0.0848,-0.0231,-0.0411,0.0059,-0.0501,-0.109,-0.0135,0.0005,-0.0245
"CC1(C)CCC(CN2CCN(c3ccc(C(=O)NS(=O)(=O)c4ccc(NCC5CCOCC5)c([N+](=O)[O-])c4)c(Oc4cnc5[nH]ccc5c4)c3)CC2)=C(c2ccc(Cl)cc2)C1 [Venetoclax] + C[C@@H](Nc1cc(F)cc(F)c1)c1cc(C(=O)N(C)C)cc2c(=O)cc(N3CCOCC3)oc12 [AZD8186] (first compound max 1 µM, 7x7, partner max 3 µM)",0.0128,-0.055,0.0617,-0.0292,0.0092,-0.0214,0.0144,0.0093,-0.0183,0.0371,-0.0162,-0.0218,-0.111,0.0083,-0.0644,-0.0984,-0.0384,-0.0261,0.029,-0.0502
